Experimental data reported in PMC5750218, “Protein-inspired antibiotics active against vancomycin- and daptomycin-resistant bacteria” (Nature Communications, 2018).
Values after ≈ are worked out from the molar mass of the structure shown. Positions of bridges follow the written chain, without caps; N, C: chain ends. Residues, ends and D or L forms follow the SMILES beside them. Chains are numbered I, II in the order given. *: point of attachment. Myristoyl = CCCCCCCCCCCCCC(=O)*

How the values were obtained:
Experiment in all cases: microbe, parasite or virus in culture
[1] = system: Vancomycin-resistant (VanA) Enterococcus faecium ATCC 51559; settings: ATCC 51559
Procedure: (§1) Antimicrobial activity of compounds was tested against a number of bacterial strains by broth microdilution (BMD) assay with MIC determination, including S. aureus (MSSA ATCC® 29213™, MRSA ATCC® 43300™, VISA NARSA NRS1, VISA NARSA NRS4), Streptococcus pneumoniae (MDR ATCC® 700677™) and Enterococcus faecium (MDR VanA ATCC® 51559™). ATCC strains were sourced from the American Type Culture Collection and NRS strains from NARSA (Network on Antimicrobial Resistance in S. aureus) via BEI Resources (www.beiresources.org). All compounds were prepared to 160 µg mL^−1 solution in water from a stock solution of 1 mM concentration.
(§2) The compounds, along with standard antibiotics were serially diluted twofold across the wells of 96-well non-binding surface (NBS) polystyrene plates (Corning 3641). […] Standards ranged from 64 to 0.03 µg mL^−1 and compounds from 8 to 0.003 µg mL^−1 with final assay volumes of 100 µL per well. Gram-positive bacteria were cultured in Mueller Hinton broth (MHB) (Bactolaboratories, Cat. no. 211443) at 37 °C overnight. A sample of each culture was then diluted 40-fold in fresh MHB and incubated at 37 °C for 2–3 h. […] All the plates were covered and incubated at 37 °C for 24 h. MICs were the lowest concentration showing no visible growth.

[2] = system: Methicillin-resistant S. aureus ATCC 43300; settings: ATCC 43300, 24 h
Procedure: as §1
as §2, with “The compounds, along with standard antibiotics were serially diluted twofold across the wells of 96-well non-binding surface (NBS) polystyrene plates (Corning 3641).” left out

[3] = system: Multi-drug-resistant S. pneumoniae ATCC 700677; settings: ATCC 700677
Procedure: as §1, §2

[4] = system: Vancomycin-intermediate S. aureus NRS1; settings: Vancomycin-intermediate NRS1
Procedure: as §1, §2

Row | SMILES | MIC VRE [1] [µg/mL] | MIC MRSA [2] [µg/mL] | MIC MDR S.P. [3] [ng/mL] | MIC VISA [4] [µg/mL]
1 | CNC(=O)[C@H](CCCCNC(=O)[C@H]1NC(=O)[C@H]2NC(=O)[C@H](NC(=O)[C@@H]3NC(=O)[C@H](CC(N)=O)NC(=O)[C@H](NC(=O)[C@@H](CC(C)C)NC)[C@H](O)c4ccc(c(Cl)c4)Oc4cc3cc(c4O[C@@H]3O[C@H](CO)[C@@H](O)[C@H](O)[C@H]3O[C@H]3C[C@](C)(N)[C@H](O)[C@H](C)O3)Oc3ccc(cc3Cl)[C@H]2O)c2ccc(O)c(c2)-c2c(O)cc(O)cc21)NC(=O)[C@H](CN)NC(=O)[C@H](CN)NC(=O)[C@H](CCCCNC(=O)c1ccc(Oc2ccccc2)cc1)NC(=O)c1ccc(Oc2ccccc2)cc1 [Compound 29, POB2K-Dap-Dap-K(Vancomycin)-NHMe] | 0.75 (≈ 0.328 µM) | 0.0045 (≈ 0.00197 µM) | 8.5 (≈ 0.00372 µM) | 0.0925 (≈ 0.0405 µM)
2 | CCCCCCCCCCCCC(=O)N[C@@H](CCCCN)C(=O)N[C@@H](CCCCN)C(=O)N[C@@H](CCCCN)C(=O)N[C@@H](CCCCNC(=O)[C@H]1NC(=O)[C@H]2NC(=O)[C@H](NC(=O)[C@@H]3NC(=O)[C@H](CC(N)=O)NC(=O)[C@H](NC(=O)[C@@H](CC(C)C)NC)[C@H](O)c4ccc(c(Cl)c4)Oc4cc3cc(c4O[C@@H]3O[C@H](CO)[C@@H](O)[C@H](O)[C@H]3O[C@H]3C[C@](C)(N)[C@H](O)[C@H](C)O3)Oc3ccc(cc3Cl)[C@H]2O)c2ccc(O)c(c2)-c2c(O)cc(O)cc21)C(=O)O [Compound 38, nC12CO-KKK-K-(Vancomycin)-OH] | 0.1875 (≈ 0.0869 µM) | <0.003 | <3 | 0.03 (≈ 0.0139 µM)
3 | CCCCCCCCCCCCCC(=O)NCC(=O)N[C@@H](CO)C(=O)N[C@@H](CCCCN)C(=O)N[C@@H](CCCCN)C(=O)N[C@@H](CCCCN)C(=O)N[C@@H](CS)C(=O)O [Compound 14a, Myristoyl-GSKKKC-OH] (Myristoyl-GSKKKC-OH) | >8 | >8 | – | –

More lines, main results first:

Row | MIC VRE [1] [µg/mL] | MIC MRSA [2] [µg/mL] | SMILES | MIC MDR S.P. [3] [ng/mL] | MIC VISA [4] [µg/mL]
4 | >8 | >8 | CCCCCCCCCCCCCC(=O)NCC(=O)N[C@@H](CO)C(=O)N[C@@H](CO)C(=O)N[C@@H](CCCCN)C(=O)N[C@@H](CO)C(=O)N1CCC[C@H]1C(=O)N[C@@H](CO)C(=O)N[C@@H](CCCCN)C(=O)N[C@@H](CCCCN)C(=O)N[C@@H](CCCCN)C(=O)N[C@@H](CCCCN)C(=O)N[C@@H](CCCCN)C(=O)N[C@@H](CCCCN)C(=O)N1CCC[C@H]1C(=O)NCC(=O)N[C@@H](CC(=O)O)C(=O)N[C@@H](CS)C(N)=O [Compound 8a] (Myristoyl-GSSKSPSKKKKKKPGDC-NH2) | – | –
5 | >8 | >8 | CCCCCCCCCCCCCC(=O)NCC(=O)N[C@@H](CO)C(=O)N[C@@H](CCCCN)C(=O)N[C@@H](CCCCN)C(=O)N[C@@H](CCCCN)C(=O)N[C@@H](CS)C(N)=O [Compound 13a, Myristoyl-GSKKKC-NH 2] (Myristoyl-GSKKKC-NH2) | – | –
6 | >8 | >8 | CCCCCCCCCCCCCC(=O)NCC(=O)N[C@@H](CO)C(=O)N[C@@H](CO)C(=O)N[C@@H](CCCCN)C(=O)N[C@@H](CO)C(=O)N1CCC[C@H]1C(=O)N[C@@H](CO)C(=O)N[C@@H](CCCCN)C(=O)N[C@@H](CCCCN)C(=O)N[C@@H](CCCCN)C(=O)N1CCC[C@H]1C(=O)N[C@@H](CS)C(N)=O [Compound 12a] (Myristoyl-GSSKSPSKKKPC-NH2) | – | –
7 | >8 | >8 | CCCCCCCCCCCCCC(=O)N[C@@H](CCCCN)C(=O)N[C@@H](CCCCN)C(=O)N[C@@H](CCCCN)C(=O)N[C@@H](CSSC[C@H](NC(=O)[C@H](CCCCN)NC(=O)[C@H](CCCCN)NC(=O)[C@H](CCCCN)NC(=O)CCCCCCCCCCCCC)C(=O)O)C(=O)O [Compound 15a, Myristoyl-KKKC-OH – disulphide dimer] (I: Myristoyl-KKKC-OH / II: Myristoyl-KKKC-OH; disulfide I:4-II:4) | – | –
